According to patent US6828450B2, “Triptycene analogs” (Kansas State University Research Foundation, priority 2000, dated 2004):
Several values for one entry are separate records, joined by “and”; a condition that tells them apart may be missing. Equal entries are not always repeated. Where two headings read alike, the source gives them in different places. Each block holds one compound with its values, some of them ahead of it.

Tests used:
L1210 cells = assay: RNA synthesis (3H-uridine incorporation) in L1210 cells; format: cell-based, murine
Protocol: FIG. 16. Comparison of the concentration-dependent inhibitions of RNA synthesis by the TT analog TT2 (●) and DAU (∘) in L1210 cells in vitro. […] RNA synthesis in vehicle-treated control cells was 47,117±3,204 cpm (100±7%; striped area). The blank value (1,746±155 cpm) for cells incubated and pulse-labeled at 2° C. with 2 μCi of ^3H-uridine has been substracted from the results.
Except when otherwise specified, the cells were incubated at 37° C. for 90 min in the presence or absence of drugs and then pulse-labeled for an additional 30 min with 1 μCi of [methyl-^3H]thymidine (50 Ci/mmol; Amersham Corp., Arlington Heights, Ill.) to estimate the rate of DNA synthesis. […] After drying the filters, the radioactivity bound to the acid-precipitable material was determined by liquid scintillation counting (LSC) in 10 ml of Bio-Safe NA (Researeh Products International Corp., Mount Prospect, Ill.).

HL-60-R8 cells [1] = assay: DNA cleavage in HL-60-R8 cells; format: cell-based, human; conditions: HL-60-R8, 24 h
Protocol: (§1) FIG. 23. Comparison of the concentration-dependent inductions of DNA cleavage by DAU (open symbols in A) and TT2 (closed symbols in B) at 24 h in HL-60-S (circles), HL-60-RV (squares) and HL-60-R8 (triangles) cells containing ^3H-prelabeled DNA in vitro. Results are expressed as [cpm in supernatant/cpm in supernatant+pellet]×100 at 24 h. For untreated controls (14.7±1.7% DNA fragmentation, striped areas), the supernatant (DNA fragments) is 12,815±1,358 cpm and the pellet (intact DNA) is 74,406±9,078 cpm.
(§2) The MDR HL-60-RV and HL-60-R8 cells were developed in Melvin S. Center's laboratory (Kansas State University) and similarly maintained in RPMI 1640 medium in the absence of drugs (Marsh W, et al, Cancer Res 46: 4053-4057, 1986; McGrath T et al, and Center M S: Biochem Biophys Res Commun 145: 1171-1176, 1987; Marsh W and Center M S: Cancer Res 47: 5080-5086, 1987; McGrath T, et al, Biochem Pharmacol 38: 3611-3619, 1989; Marquardt D, et al, Cancer Res 50: 1426-1430, 1990; Marquardt D and Center M S: J Natl Cancer Inst 83: 1089-1109, 1991; Krishnamachary N and Center M S; Cancer Res 53: 3658-3661, 1993). Every 4 weeks, these HL-60-RV and HL-60-R8 sublines were exposed to 41 nM DAU for 48 h to stabilize their MDR phenotype. […] RFs were determined by dividing the IC50 of the MDR cells by that of the sensitive WT parent cell line. […]

HL-60-RV cells [2] = assay: DNA cleavage in HL-60-RV cells; format: cell-based, human; conditions: 24 h
Protocol: as §1, §2

HL-60-R8 cells [3] = assay: HL-60-R8 (MDR) cell proliferation assay; format: cell-based, human; conditions: read-out: IC50, inhibition of HL-60-R8 cell proliferation
Text: (§3) The MDR HL-60-RV and HL-60-R8 cells were developed in Melvin S. Center's laboratory (Kansas State University) and similarly maintained in RPMI 1640 medium in the absence of drugs (Marsh W, et al, Cancer Res 46: 4053-4057, 1986; McGrath T et al, and Center M S: Biochem Biophys Res Commun 145: 1171-1176, 1987; Marsh W and Center M S: Cancer Res 47: 5080-5086, 1987; McGrath T, et al, Biochem Pharmacol 38: 3611-3619, 1989; Marquardt D, et al, Cancer Res 50: 1426-1430, 1990; Marquardt D and Center M S: J Natl Cancer Inst 83: 1089-1109, 1991; Krishnamachary N and Center M S; Cancer Res 53: 3658-3661, 1993). Every 4 weeks, these HL-60-RV and HL-60-R8 sublines were exposed to 41 nM DAU for 48 h to stabilize their MDR phenotype. This concentration of DAU, which is not cytotoxic to MDR HL-60 sublines, was removed from the culture medium at least 48 h before experimentation. […] RFs were determined by dividing the IC50 of the MDR cells by that of the sensitive WT parent cell line.

HL-60-R8 cells [4] = assay: HL-60-R8 (MDR) cell viability assay (MTS:PMS); format: cell-based, human; conditions: read-out: IC50, decrease of HL-60-R8 cell viability
Text: as §3

HL-60-RV cells [5] = assay: cells; format: cell-based, human; conditions: for IC50: read-out: IC50, decrease of HL-60-RV cell viability
Text: as §3

HL-60-RV cells [6] = assay: DNA synthesis in HL-60-RV cells; format: cell-based, human; conditions: for IC50: read-out: IC50, inhibition of DNA synthesis in HL-60-RV cells
HL-60-S cells = assay: HL-60-S cell proliferation assay; format: cell-based, human
Text: as §3

[7] = HL-60-RV and HL-60-R8 vs HL-60-S, day 2
[8] = HL-60-RV and HL-60-R8 vs HL-60-S, day 4
[9] = HL-60-RV and HL-60-R8 vs HL-60-S

IC50 (L1210 cells; 3 h drug + 1 h pulse-labeling, read-out: IC50, inhibition of RNA synthesis in L1210 cells): 6000 nM and ~6000 nM
IC50 (HL-60-R8 cells [3]; day 2): 350 nM
IC50 (HL-60-R8 cells [3]; day 4): 290 nM
IC50 (HL-60-R8 cells [4]; day 2): 1600 nM
IC50 (HL-60-R8 cells [4]; day 4): 350 nM
RFs, cell viability (IC50 of MDR cells / IC50 of WT HL-60-S) (HL-60-RV cells [5]; [7]): 0.9-1.2
RFs, cell viability (IC50 of MDR cells / IC50 of WT HL-60-S) (HL-60-RV cells [5]; [8]): 1.5
IC50 (HL-60-RV cells [5]; day 2): 1100 nM
IC50 (HL-60-RV cells [5]; day 4): 340 nM
RFs, DNA synthesis (IC50 of MDR cells / IC50 of WT HL-60-S) (HL-60-RV cells [6]; [9]): 1.2
IC50 (HL-60-RV cells [6]): 2100 nM
IC50 (HL-60-S cells; HL-60-S, HL-60-RV and HL-60-R8, day 4, read-out: IC50 values, inhibition of cell proliferation, range over the three lines): 260 to 300 nM
IC50 (HL-60-S cells; day 2, read-out: IC50, inhibition of HL-60-S cell proliferation): 400 nM
IC50 (HL-60-S cells; day 4, read-out: IC50, inhibition of HL-60-S cell proliferation): 300 nM
SMILES: COC1=CC(=O)C2=C(C1=O)C1C3=C(C(=O)C=CC3=O)C2c2ccccc21 (stereo not drawn) [TT2, 2-Methoxy-9,10-dihydro-9,10-[1′,2′]benzenoanthracene-1,4,5,8-tetraone]
reduction of the peak of maximal DNA cleavage relative to HL-60-S cells (HL-60-R8 cells [1]): 35%
reduction of the peak of maximal DNA cleavage relative to HL-60-S cells (HL-60-RV cells [2]): 39%
times TT2 inhibits tumor cell growth less effectively than DAU (HL-60-S cells; HL-60-S): 33 times

SMILES: COc1cccc2c1C(=O)c1c(O)c3c(c(O)c1C2=O)C[C@@](O)(C(C)=O)C[C@@H]3O[C@H]1C[C@H](N)[C@H](O)[C@H](C)O1 [DAU, daunomycin, reference compound]
times DAU inhibits RNA synthesis more effectively than TT2 (L1210 cells; L1210): about 7.5 times
reduction of the peak of maximal DNA cleavage relative to HL-60-S cells (HL-60-R8 cells [1]): 60%
reduction of the peak of maximal DNA cleavage relative to HL-60-S cells (HL-60-RV cells [2]): 79%
IC50 (HL-60-R8 cells [3]; Homo sapiens, 48 h): 320 nM
IC50 (HL-60-R8 cells [3]; Homo sapiens, 96 h): 225 nM
IC50 (HL-60-R8 cells [4]; Homo sapiens, 48 h): 2500 nM
IC50 (HL-60-R8 cells [4]; Homo sapiens, 96 h): 380 nM
times less potent as cytotoxic agent in MDR than in WT HL-60 cells (HL-60-RV cells [5]; [9]): about 28 times
RFs, cell viability (IC50 of MDR cells / IC50 of WT HL-60-S) (HL-60-RV cells [5]; [7]): 23.8-31.3
RFs, cell viability (IC50 of MDR cells / IC50 of WT HL-60-S) (HL-60-RV cells [5]; [8]): 25.3-30.0
IC50 (HL-60-RV cells [5]; Homo sapiens, 96 h): 450 nM
RFs, DNA synthesis (IC50 of MDR cells / IC50 of WT HL-60-S) (HL-60-RV cells [6]; [9]): 8.1-11.9
times MDR sublines are less sensitive, DNA synthesis (HL-60-RV cells [6]; [9]): 10 times
IC50 (HL-60-RV cells [6]; Homo sapiens): 2500 nM
IC50 (HL-60-S cells; Homo sapiens, 48 h, read-out: IC50, inhibition of HL-60-S cell proliferation): 14 nM
IC50 (HL-60-S cells; Homo sapiens, 96 h, read-out: IC50, inhibition of HL-60-S cell proliferation): 9 nM
